US20110177136A1, “METHOD AND PRODUCT” (priority 2008, published 2011)
Converted amounts (≈) assume the structure as drawn.

Key:
[1] = In vitro dissolution test in simulated gastric fluid (USP 24 type II apparatus); type: physicochemical; settings: 900 ml SGF pH 2, 37±0.5° C., 100 rpm, equivalent to 200 mg carbamazepine
Experimental: SGF was prepared with 2 g/L NaCl and 1 g/L Triton X-100, and acidified to pH 2 with HCl. Bath temperature was maintained at 37±0.5° C. and stirred at 100 rpm. Samples were collected at 15, 30 and 60 min and replaced with a fresh dissolution medium. After centrifugation, filtration through 0.45 μm membrane filter and suitable dilution, concentration of carbamazepine was determined spectrophotometrically at 320 nm.

physchem = settings: 37 °C, water, thermodynamic from solid
[2] = 24 h

Percentage of Carbamazepine released ([1]; 15 min, listed as pure carbamazepine): 43.48%
Percentage of Carbamazepine released ([1]; 15 min, listed as pure drug): 43.48 ± 2.23%
Percentage of Carbamazepine released ([1]; 30 min, listed as pure carbamazepine): 59.29%
Percentage of Carbamazepine released ([1]; 30 min, listed as pure drug): 59.29 ± 2.21%
Percentage of Carbamazepine released ([1]; 60 min, listed as Pure carbamazepine): 69.11%
Percentage of Carbamazepine released ([1]; 60 min, listed as pure drug): 69.11 ± 2.24%
solubility at 24 h (physchem): 290 µg/mL (≈ 1230 µM)
Saturation Solubility [2]: 290 µg/mL
Structure (SMILES): NC(=O)N1c2ccccc2C=Cc2ccccc21 [Carbamazepine, carbamazepine]
